The values that follow come from PubChem BioAssay AID2060619 (Molecular Pharmacology Branch, DTP, NCI, 2025).

The test system of the test is 323965-272-R-J2-PDC complex spheroid viability. Put plainly: Anticancer human tumor 323965-272-R-J2-PDC patient-derived pancreatic carcinoma cell line growth inhibition [CLK]. As to conditions: for viability, T/C: stronger effect = lower value. An outline of the steps: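 Multi-cell-type spheroids combined patient-derived tumor cells with HUVEC endothelial cells and human mesenchymal stem cells. Paired agents were dosed in half-log steps down from about clinical Cmax, or from 10 microM where Cmax was unknown.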

Setting [1] is: curve of first compound, second compound 0.0316 µM.
Setting [2] is: curve of first compound, second compound 0.1 µM.
Setting [3] is: curve of first compound, second compound 0.316 µM.
The mark [4] stands for this setting: curve of first compound, second compound 1 µM.
Where [5] appears, read: curve of first compound, second compound 3.16 µM.
Setting [6] is: curve of first compound, second compound 10 µM.
[7] abbreviates: second compound 0.0316 µM, first compound 0.0316 µM.
The mark [8] stands for this setting: second compound 0.0316 µM, first compound 0.1 µM.
Where [9] appears, read: second compound 0.0316 µM, first compound 0.316 µM.
The mark [10] stands for this setting: second compound 0.0316 µM, first compound 1 µM.
The mark [11] stands for this setting: second compound 0.0316 µM, first compound 3.16 µM.
Where [12] appears, read: second compound 0.0316 µM, first compound 10 µM.
Setting [13] is: second compound 0.1 µM, first compound 0.0316 µM.
[14] abbreviates: second compound 0.1 µM, first compound 0.1 µM.
Where [15] appears, read: second compound 0.1 µM, first compound 0.316 µM.
The mark [16] stands for this setting: second compound 0.1 µM, first compound 1 µM.
[17] abbreviates: second compound 0.1 µM, first compound 3.16 µM.
Where [18] appears, read: second compound 0.1 µM, first compound 10 µM.
[19] abbreviates: second compound 0.316 µM, first compound 0.0316 µM.
The mark [20] stands for this setting: second compound 0.316 µM, first compound 0.1 µM.
Setting [21] is: second compound 0.316 µM, first compound 0.316 µM.
[22] abbreviates: second compound 0.316 µM, first compound 1 µM.
[23] abbreviates: second compound 0.316 µM, first compound 3.16 µM.
[24] abbreviates: second compound 0.316 µM, first compound 10 µM.
Where [25] appears, read: second compound 1 µM, first compound 0.0316 µM.
Where [26] appears, read: second compound 1 µM, first compound 0.1 µM.
Setting [27] is: second compound 1 µM, first compound 0.316 µM.
Where [28] appears, read: second compound 1 µM, first compound 1 µM.
Where [29] appears, read: second compound 1 µM, first compound 3.16 µM.
[30] abbreviates: second compound 1 µM, first compound 10 µM.
Where [31] appears, read: second compound 3.16 µM, first compound 0.0316 µM.
Where [32] appears, read: second compound 3.16 µM, first compound 0.1 µM.
Where [33] appears, read: second compound 3.16 µM, first compound 0.316 µM.
The mark [34] stands for this setting: second compound 3.16 µM, first compound 1 µM.
The mark [35] stands for this setting: second compound 3.16 µM, first compound 3.16 µM.
The mark [36] stands for this setting: second compound 3.16 µM, first compound 10 µM.
The mark [37] stands for this setting: second compound 10 µM, first compound 0.0316 µM.
[38] abbreviates: second compound 10 µM, first compound 0.1 µM.
[39] abbreviates: second compound 10 µM, first compound 0.316 µM.
The mark [40] stands for this setting: second compound 10 µM, first compound 1 µM.
[41] abbreviates: second compound 10 µM, first compound 3.16 µM.
The mark [42] stands for this setting: second compound 10 µM, first compound 10 µM.

Where “and” joins values, the source holds several entries; their conditions need not be identical. Identical values can stand only once.
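Also: spheroids exposed to agents for seven days before readout.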
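For viability, T/C in this document: percent of DMSO vehicle control wells so 100% = untreated growth.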

As for `COc1cccc2c1C(=O)c1c(O)c3c(c(O)c1C2=O)CC(O)(C(=O)CO)CC3OC1CC(N)C(O)C(C)O1` (configuration not stated) + CNC(=O)c1ccc(Nc2nc(OC3CCCC3)c3c(-c4ccc5nc(C)oc5c4)c[nH]c3n2)c(OC)c1, the IC50 is 104 nM under setting [1]; 135 nM under setting [2]; less than 31.6 nM under setting [3]; less than 31.6 nM under setting [4]; less than 31.6 nM under setting [5]; less than 31.6 nM under setting [6]. Further, the viability, T/C is, setting by setting: under setting [7], 69.4%; under setting [8], 38.1%; under setting [9], 41.5%; under setting [10], 28.1%; under setting [11], 19.5%; under setting [12], 0.64%. The viability, T/C by setting is: under setting [13], 73.2%; under setting [14], 44.8%; under setting [15], 39.6%; under setting [16], 28%; under setting [17], 19.7%; under setting [18], 0.62%. The viability, T/C was 48% under setting [19]; 44.1% under setting [20]; 29.9% under setting [21]; 22.7% under setting [22]; 13.4% under setting [23]; 0.67% under setting [24]. For the same compound, the viability, T/C runs as follows: under setting [25], 40.8%; under setting [26], 30%; under setting [27], 22.7%; under setting [28], 17.4%; under setting [29], 9.89%; under setting [30], 0.56%. Also, the viability, T/C is 30.6% under setting [31]; 30.9% under setting [32]; 20.8% under setting [33]; 13.7% under setting [34]; 7.23% under setting [35]; 0.56% under setting [36]. The viability, T/C is, setting by setting: under setting [37], 37.2%; under setting [38], 25.6%; under setting [39], 24.2%; under setting [40], 15.4%; under setting [41], 6.06%; under setting [42], 0.58%.

For the compound `Cn1ncnc1[C@H]1c2n[nH]c(=O)c3cc(F)cc(c23)N[C@@H]1c1ccc(F)cc1`, the viability, T/C by setting is: (compound 0.000316 µM) 108% and 106%; (compound 0.001 µM) 108% and 97.8%; (compound 0.00316 µM) 101% and 105%; (compound 0.01 µM) 104% and 99.3%; (compound 0.0316 µM) 114% and 94.7%; (compound 0.1 µM) 83.6% and 74.6%. The IC50 (curve of compound) was greater than 100 nM.

`CNC(=O)c1ccc(Nc2nc(OC3CCCC3)c3c(-c4ccc5nc(C)oc5c4)c[nH]c3n2)c(OC)c1`: the viability, T/C (compound 0.1 µM) was 87.2% [middle of 12 runs]; the viability, T/C (compound 0.316 µM) is 65.7% [middle of 12 runs]; the viability, T/C (compound 1 µM) is 49.8% [middle of 12 runs]; the viability, T/C (compound 3.16 µM) is 44.7% [middle of 12 runs]; the viability, T/C (compound 10 µM) is 47.2% [middle of 12 runs].

For `COc1cccc2c1C(=O)c1c(O)c3c(c(O)c1C2=O)CC(O)(C(=O)CO)CC3OC1CC(N)C(O)C(C)O1` (configuration not stated), the viability, T/C reads like this: (compound 0.0316 µM) 87.4% and 66.2%; (compound 0.1 µM) 40.6% and 41.4%; (compound 0.316 µM) 38.4% and 37%; (compound 1 µM) 44.7% and 30.5%; (compound 3.16 µM) 30.1% and 21.3%; (compound 10 µM) 2.57% and 0.82%. For the same compound, the concentration for half-maximal inhibition (IC50) (curve of compound) is 240 nM and 97.6 nM.

Consider `CC1COCCN1c1cc(C2(S(C)(=N)=O)CC2)nc(-c2ccnc3[nH]ccc23)n1` (configuration not stated) + CNC(=O)c1ccc(Nc2nc(OC3CCCC3)c3c(-c4ccc5nc(C)oc5c4)c[nH]c3n2)c(OC)c1, for which the IC50 under setting [1] turned out to be 2100 nM; the half-inhibitory concentration (IC50) under setting [2] stood at 1680 nM; the IC50 under setting [3] stood at 1180 nM; the half-maximal inhibitory concentration (IC50) under setting [4] was less than 31.6 nM; the concentration for half-maximal inhibition (IC50) under setting [5] was less than 31.6 nM; the 50% inhibitory concentration (IC50) under setting [6] is less than 31.6 nM. In addition, the viability, T/C was 109% under setting [7]; 106% under setting [8]; 90.7% under setting [9]; 70.1% under setting [10]; 38.2% under setting [11]; 25.6% under setting [12]. Besides, the viability, T/C is, setting by setting: under setting [13], 94%; under setting [14], 93.8%; under setting [15], 64.2%; under setting [16], 64.2%; under setting [17], 37.8%; under setting [18], 33.9%. Also, the viability, T/C by setting is: under setting [19], 58.5%; under setting [20], 61.5%; under setting [21], 61.2%; under setting [22], 51.1%; under setting [23], 37.4%; under setting [24], 27.7%. Further, the viability, T/C under setting [25] is 43.4%; the viability, T/C under setting [26] was 48.9%; the viability, T/C under setting [27] was 40.7%; the viability, T/C under setting [28] was 33.8%; the viability, T/C under setting [29] is 24%; the viability, T/C under setting [30] is 18.7%. Moreover, the viability, T/C reads like this: under setting [31], 41.7%; under setting [32], 36.9%; under setting [33], 39.2%; under setting [34], 31.5%; under setting [35], 24.1%; under setting [36], 18.7%. Further, the viability, T/C under setting [37] is 46.8%; the viability, T/C under setting [38] was 42.6%; the viability, T/C under setting [39] is 38.5%; the viability, T/C under setting [40] was 28.5%; the viability, T/C under setting [41] is 22%; the viability, T/C under setting [42] was 16.8%.

For `CCCS(=O)(=O)Nc1ccc(F)c(C(=O)c2c[nH]c3ncc(-c4ccc(Cl)cc4)cc23)c1F` + CN1CCN(c2cc(C(=O)Nc3cc4cc(-c5cnn(C)c5)ccc4cn3)ccn2)CC1, the IC50 by setting is: under setting [1], greater than 10000 nM; under setting [2], greater than 10000 nM; under setting [3], less than 31.6 nM; under setting [4], less than 31.6 nM; under setting [5], less than 31.6 nM; under setting [6], less than 31.6 nM. Also, the viability, T/C is 97.9% under setting [7]; 102% under setting [8]; 102% under setting [9]; 111% under setting [10]; 101% under setting [11]; 78.7% under setting [12]. Besides, the viability, T/C is 68.4% under setting [13]; 68.1% under setting [14]; 80.1% under setting [15]; 83% under setting [16]; 84.7% under setting [17]; 66.5% under setting [18]. Also, the viability, T/C reads like this: under setting [19], 28.1%; under setting [20], 26.3%; under setting [21], 30.5%; under setting [22], 34.7%; under setting [23], 32.3%; under setting [24], 35%. In addition, the viability, T/C was 4.7% under setting [25]; 3.95% under setting [26]; 3.77% under setting [27]; 4.38% under setting [28]; 4.19% under setting [29]; 6.54% under setting [30]. Also, the viability, T/C runs as follows: under setting [31], 4.04%; under setting [32], 4.11%; under setting [33], 4.16%; under setting [34], 4.42%; under setting [35], 5.61%; under setting [36], 6.54%. Besides, the viability, T/C by setting is: under setting [37], 4.15%; under setting [38], 4.79%; under setting [39], 4.2%; under setting [40], 4.29%; under setting [41], 4.87%; under setting [42], 5.79%.

`O=C(c1cc(Cc2n[nH]c(=O)c3ccccc23)ccc1F)N1CCN(C(=O)C2CC2)CC1`: the viability, T/C reads like this: (compound 0.0316 µM) 105% and 107%; (compound 0.1 µM) 103% and 102%; (compound 0.316 µM) 100% and 98.1%; (compound 1 µM) 103% and 90.2%; (compound 3.16 µM) 108% and 107%; (compound 10 µM) 84.3% and 81.5%. For the same compound, the 50% inhibitory concentration (IC50) (curve of compound) is greater than 10000 nM.

As a reminder, the IC50 is the midpoint of a concentration-inhibition curve. By viability, T/C is commonly meant the ratio of treated to control.
